Where “and” joins values, the source holds several entries; their conditions need not be identical. Identical values can stand only once. Toxic doses and inconclusive results are not listed. Rule for the calls: active = survival T/C of 150% or more; inactive = T/C below 125% in these data.
Test system: P388 leukemia ip, CD2F1 mice, survival T/C
Experiment: NCI In Vivo Anticancer Drug Screen. Data for tumor model P388 Leukemia (intraperitoneal) in CD2F1 (CDF1) mice
Conditions: endpoint: median survival time, higher = longer survival
Outline: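 Mice carrying the transplanted tumor received test compound or vehicle. Survival was recorded in each group, and the value is the treated-group measurement divided by that of the vehicle-treated control group.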

[1] = dose: 100.0 mg/kg/injection, schedule: Q01DX005 (ip), vehicle: saline with Tween-80
[2] = dose: 50.0 mg/kg/injection, schedule: Q01DX009 (ip), vehicle: Klucel (hydroxypropylcellulose) (HPC)
[3] = dose: 100.0 mg/kg/injection, schedule: Q01DX001 (ip), vehicle: Klucel (hydroxypropylcellulose) (HPC)
[4] = dose: 100.0 mg/kg/injection, schedule: Q01DX009 (ip), vehicle: Klucel (hydroxypropylcellulose) (HPC)
[5] = dose: 200.0 mg/kg/injection, schedule: Q01DX001 (ip), vehicle: Klucel (hydroxypropylcellulose) (HPC)
[6] = dose: 200.0 mg/kg/injection, schedule: Q01DX009 (ip), vehicle: Klucel (hydroxypropylcellulose) (HPC)
[7] = dose: 50.0 mg/kg/injection, schedule: Q01DX009 (ip), vehicle: saline
[8] = dose: 100.0 mg/kg/injection, schedule: Q01DX009 (ip), vehicle: saline
[9] = dose: 200.0 mg/kg/injection, schedule: Q01DX009 (ip), vehicle: saline
[10] = dose: 50.0 mg/kg/injection, schedule: Q01DX005 (ip), vehicle: saline with Tween-80
[11] = dose: 200.0 mg/kg/injection, schedule: Q01DX005 (ip), vehicle: saline with Tween-80
[12] = dose: 60.0 mg/kg/injection, schedule: Q01DX005 (ip), vehicle: saline with Tween-80
[13] = dose: 120.0 mg/kg/injection, schedule: Q01DX005 (ip), vehicle: saline with Tween-80
[14] = dose: 240.0 mg/kg/injection, schedule: Q01DX005 (ip), vehicle: saline with Tween-80

Measured: T/C

Cn1nnnc1CC(=O)O
inactive: dose: 100.0 mg/kg/injection, schedule: Q04DX003 (ip), vehicle: saline 99 % of control | dose: 200.0 mg/kg/injection, schedule: Q04DX003 (ip), vehicle: saline 108 % of control | dose: 400.0 mg/kg/injection, schedule: Q04DX003 (ip), vehicle: saline 103 % of control

CC(C)=NN/C=N/S(C)(=O)=O
inactive: dose: 100.0 mg/kg/injection, schedule: Q04DX002 (ip), vehicle: saline 105 % of control | dose: 200.0 mg/kg/injection, schedule: Q04DX002 (ip), vehicle: saline 104 % of control | dose: 400.0 mg/kg/injection, schedule: Q04DX002 (ip), vehicle: saline 104 % of control

CCOc1c(N=Nc2cccc([N+](=O)[O-])c2)c(C)nn1C(=S)S
inactive: dose: 60.0 mg/kg/injection, schedule: Q01DX005 (ip), vehicle: Klucel + Tween-80 97 % of control | dose: 120.0 mg/kg/injection, schedule: Q01DX005 (ip), vehicle: Klucel + Tween-80 97 % of control | dose: 240.0 mg/kg/injection, schedule: Q01DX005 (ip), vehicle: Klucel + Tween-80 98 % of control

CC(/C=C/c1ccc(C)cc1)=N\NC(N)=S
inactive: dose: 1.5 mg/kg/injection, schedule: Q01DX005 (ip), vehicle: Klucel + Tween-80 99 % of control | dose: 3.0 mg/kg/injection, schedule: Q01DX005 (ip), vehicle: Klucel + Tween-80 105 % of control | dose: 6.0 mg/kg/injection, schedule: Q01DX005 (ip), vehicle: Klucel + Tween-80 105 % of control | dose: 6.0 mg/kg/injection, schedule: Q01DX005 (ip), vehicle: saline 112 % of control

S=C1N(c2ccc(Cl)cc2)C2=C(N=Nc3ccccc3Cl)C(=Nc3ccccc3S2)N1c1ccccn1
inactive: [1] 108 % of control

O=C(CC1CCCC/C1=N\O)NO (stereo unspecified)
inactive: [2] 100 % of control | [3] 106 % of control | [4] 100 % of control | [5] 112 % of control | [6] 117 % of control | dose: 400.0 mg/kg/injection, schedule: Q01DX001 (ip), vehicle: Klucel (hydroxypropylcellulose) (HPC) 109 % of control

COC1(OC)C(c2cccs2)C(C#N)(C#N)C1(OC)OC (stereo unspecified)
inactive: dose: 60.0 mg/kg/injection, schedule: Q01DX005 (ip), vehicle: Klucel (hydroxypropylcellulose) (HPC) 100 % of control | dose: 120.0 mg/kg/injection, schedule: Q01DX005 (ip), vehicle: Klucel (hydroxypropylcellulose) (HPC) 105 % of control | dose: 240.0 mg/kg/injection, schedule: Q01DX005 (ip), vehicle: Klucel (hydroxypropylcellulose) (HPC) 100 % of control

CCn1c(O)c(N=NC(=S)c2ccc3ccccc3n2)c2ccccc21
inactive: [7] 104 % of control | [8] 96 % of control | [9] 86 % of control

Cc1cccc2nnc(CCCc3nnc4cccc(C)n34)n12
inactive: dose: 100.0 mg/kg/injection, schedule: Q04DX003 (ip), vehicle: saline with Tween-80 98 % of control | dose: 200.0 mg/kg/injection, schedule: Q04DX003 (ip), vehicle: saline with Tween-80 97 % of control | dose: 400.0 mg/kg/injection, schedule: Q04DX003 (ip), vehicle: saline with Tween-80 96 % of control

OC1(CN2CCCCC2)CCCOCCCOCCCOCCCOCCCOCCC1
inactive: [10] 94 % of control | [1] 99 % of control | [11] 100 % of control

O=C(O)c1cc(=O)cc(-c2ccccc2)o1
inactive: dose: 50.0 mg/kg/injection, schedule: Q01DX005 (ip), vehicle: Klucel (hydroxypropylcellulose) (HPC) 98 % of control | dose: 100.0 mg/kg/injection, schedule: Q01DX005 (ip), vehicle: Klucel (hydroxypropylcellulose) (HPC) 97 % of control | dose: 200.0 mg/kg/injection, schedule: Q01DX005 (ip), vehicle: Klucel (hydroxypropylcellulose) (HPC) 101 % of control

CCN(CC)C(=O)Oc1cc(C(=O)N(CC)CC)c(OC(=O)N(CC)CC)cc1C(=O)N(CC)CC
inactive: [12] 101 % of control | [13] 92 % of control | [14] 89 % of control

CC(=O)Nc1ccc(-c2ccc(NC(C)=O)cc2)cc1
inactive: [7] 105 % of control | [8] 92 % of control | [9] 92 % of control

C=CCCN=C(SC)SC
inactive: [12] 104 % of control | [13] 114 % of control

C/C(N=NC(=S)N1CCCCCC1)=C1\C=CC=CN1O
inactive: [10] 106 % of control | [1] 108 % of control | [11] 110 % of control

Cc1cc2nnnn2c2ccccc12
inactive: [7] 96 % of control | [8] 99 % of control | [9] 95 % of control

Fc1ccc(Nc2c3ccccc3nc3ccccc23)cc1
inactive: dose: 12.5 mg/kg/injection, schedule: Q01DX009 (ip), vehicle: saline with Tween-80 110 % of control | dose: 25.0 mg/kg/injection, schedule: Q01DX009 (ip), vehicle: saline with Tween-80 120 % of control

CC1(C)CCC2(C(=O)O)CCC3(C)C(=CCC4C5(C)CC(O)C(O)C(C)(C(=O)O)C5CCC43C)C2C1 (stereo unspecified)
inactive: dose: 1.0 mg/kg/injection, schedule: Q01DX005 (ip), vehicle: saline 96 % of control | dose: 2.03 mg/kg/injection, schedule: Q01DX005 (ip), vehicle: saline 94 % of control | dose: 4.06 mg/kg/injection, schedule: Q01DX005 (ip), vehicle: saline 87 % of control | dose: 8.12 mg/kg/injection, schedule: Q01DX005 (ip), vehicle: saline 90 % of control

N#CC12CCCCC1CCC1(C2)OCCO1 (stereo unspecified)
inactive: [2] 111 % of control | [4] 100 % of control | [6] 108 % of control

CCN(CC)CCNc1ccc(COC(C)=O)c2sc3ccccc3c(=O)c12
inactive: dose: 6.25 mg/kg/injection, schedule: Q01DX005 (ip), vehicle: saline with Tween-80 109 % of control and 123 % of control | dose: 12.5 mg/kg/injection, schedule: Q01DX005 (ip), vehicle: saline with Tween-80 121 % of control | [10] 118 % of control

O=C(c1ccccc1)C(O)(CC(c1ccccc1)[P+](c1ccccc1)(c1ccccc1)c1ccccc1)c1ccccc1 (stereo unspecified)
inactive: dose: 1.32 mg/kg/injection, schedule: Q01DX009 (ip), vehicle: saline with Tween-80 90 % of control | dose: 2.0 mg/kg/injection, schedule: Q01DX009 (ip), vehicle: saline with Tween-80 104 % of control | dose: 3.0 mg/kg/injection, schedule: Q01DX009 (ip), vehicle: saline with Tween-80 113 % of control | dose: 4.5 mg/kg/injection, schedule: Q01DX009 (ip), vehicle: saline with Tween-80 118 % of control

CN1C(=O)C(=O)N(CCCN2CCN(CCCN3C(=O)C(=O)N(C)C3=O)CC2)C1=O
inactive: [2] 104 % of control | [4] 106 % of control | [6] 98 % of control

S=C(Nc1ccccc1)NC1SNC(=Nc2ccccc2)N1c1ccccc1 (stereo unspecified)
inactive: [10] 106 % of control | [1] 95 % of control | [11] 95 % of control

O=S(=O)(Nc1ccccn1)c1ccc(NC2OC(CO)C(O)C(O)C2O)cc1 (stereo unspecified)
inactive: dose: 50.0 mg/kg/injection, schedule: Q01DX005 (ip), vehicle: saline 103 % of control | dose: 100.0 mg/kg/injection, schedule: Q01DX005 (ip), vehicle: saline 98 % of control | dose: 200.0 mg/kg/injection, schedule: Q01DX005 (ip), vehicle: saline 103 % of control

CCN(CC)C(C)C(=O)Nc1c(C)cccc1Cl (stereo unspecified)
inactive: dose: 12.5 mg/kg/injection, schedule: Q01DX009 (ip), vehicle: saline 100 % of control | dose: 25.0 mg/kg/injection, schedule: Q01DX009 (ip), vehicle: saline 90 % of control | [7] 100 % of control

CC1(C(=O)O)CCCC2(C)C(CC(=O)O)C(=O)CCC12 (stereo unspecified)
inactive: dose: 5.0 mg/kg/injection, schedule: Q01DX009 (ip), vehicle: saline with Tween-80 101 % of control | dose: 10.0 mg/kg/injection, schedule: Q01DX009 (ip), vehicle: saline with Tween-80 108 % of control | dose: 20.0 mg/kg/injection, schedule: Q01DX009 (ip), vehicle: saline with Tween-80 99 % of control

O=C1CCSC(=S)N1N1CCN(N2C(=O)CCSC2=S)CC1
inactive: [3] 102 % of control | [5] 93 % of control

CC(CCc1ccc(O)cc1)NCCc1ccc(O)c(O)c1 (stereo unspecified)
inactive: dose: 50.0 mg/kg/injection, schedule: Q01DX009 (ip), vehicle: suspension in saline 100 % of control | dose: 100.0 mg/kg/injection, schedule: Q01DX009 (ip), vehicle: suspension in saline 104 % of control | dose: 200.0 mg/kg/injection, schedule: Q01DX009 (ip), vehicle: suspension in saline 115 % of control

COC(=O)C(C)CC(C)(CC(C)(CC(C)(C)C(=O)OC)C(=O)OC)C(=O)OC (stereo unspecified) (tested in a mixture with another compound)
inactive: [12] 100 % of control | [13] 96 % of control | [14] 100 % of control

O=C(Nc1nn[nH]n1)c1nc(-c2ccccc2)cc(=O)[nH]1
inactive: [12] 101 % of control | [13] 101 % of control | [14] 86 % of control

Reference: PubChem BioAssay AID330 (DTP/NCI, 2004)
